Experimental data taken from patent US5030647A, “Anti-inflammatory thienylbenzylamine compounds” (Boehringer Ingelheim Pharmaceuticals, Inc., priority 1990, dated 1991).
Where a name gives a salt, the structure may show the parent alone. Read-outs that look alike come from different tables or passages of the source.

Tests used:
[1] = system: paw swelling; test: Reverse passive Arthus reaction, inhibition of paw swelling after oral dosing; type: in vivo; conditions: Rattus norvegicus, po, 30 mg/kg oral, rats
Experimental: The reverse passive Arthus reaction is initiated by the interaction of antigen and antibody resulting in the formation of a precipitating immune complex, followed by fixation of complement, accumulation of leukocytes, edema and hemorrhage. The immunopathology of rheumatoid arthritis involves many of the parameters found in this reaction. Test groups (5 rats per group) are dosed orally with compounds one hour prior to the sub-plantar injection into the right hind paw of rabbit anti-ovalbumin antibody (50 μg/0.1 ml). Immediately afterwards, ovalbumin (Sigma, #5503) (5 mg/0.2 ml) is injected i.v. via the tail vein. The right hind paw volume is measured at hourly intervals, from one to four hours after the injection of the immune reactants. The change in paw volume for each animal is calculated by subtracting zero hour paw volume (before injection) from the paw volume at the time of measurement. The mean of these values is calculated for each group. Results are expressed in Table I below as percent inhibition of paw swelling compared to untreated controls.

[2] = system: human PMN; test: Chemotaxis of human peripheral leukocytes (human PMN chemotaxis, FMLP as chemoattractant); type: cell-based; conditions: Leukocyte, FMLP 1×10^-8 M; for inhibition at 1 µM: read-out: PERCENT INHIBITION (human PMN chemotaxis) 1 μM; for inhibition at 0.01 µM: read-out: PERCENT INHIBITION (human PMN chemotaxis) 0.01 μm
Experimental: A) Equal parts of citrated peripheral venous blood drawn from a normal volunteer were mixed with saline containing 6% dextran. The mixture was allowed to sediment for 30-40 minutes in a 50 ml polypropylene centrifuge tube. B) The plasma was decanted and centrifuged at 1500 rpm for 7 minutes and washed with saline. C) The supernatant was decanted and the contaminating red blood cells were eliminated by adding ice cold lysing solution and allowing the cell suspension to stand on ice for 5 minutes. […] E) The tubes were centrifuged at 400g for 30 minutes at room temperature. F) The supernatant was decanted and the PMNs (pelleted on the bottom of the tubes) were washed with saline and with Hanks buffer. The cells were adjusted to a final concentration of 3×10^6 cells/ml in Hanks buffer containing 0.5% BSA. 1) Chemoattractant: serial dilution was prepared of the stocks (10^-3 M) N-Formyl-methionyl-leucylphenylalanine in Hanks buffer and 130 μl of 1×10^-8 M solution was pipetted into the lower bottom chamber. The bottom chamber of the negative control was filled with saline. 2) Placed Millipore membranes to completely cover the wells and allowed the liquid to absorb. 3) Placed on upper chamber and tighten retaining nuts. 1) Sample preparation: Mixed equal volume of sample diluted in Hanks buffer containing […] and cell suspension in a test tube prior to pipetting 200 μl into appropriate duplicate chambers. 2) Incubated chambers at 37° C. for 40-60 minutes. 10) Three to five fields per membrane were counted with the aid of the Image Analyser (optimal 40-10). Special effort was made to select a standard for evaluating the cell monolayer in which the distribution of cells in the field of view is uniform. The number of cells at each […] level beneath the selected monolayer was then counted and the chemotactic index (CI) calculated by multiplying the individual cell count at each level by their corresponding depth of penetration, and taking the sum of these numbers. 11) The results in Table II are recorded as percent inhibition. Percent inhibition by each thienylbenzylamime was calculated as follows: [formula] The CI of the control was determined by conducting the assay with N-formyl-methionyl-leucylphenylalanine (FMLP) alone without any thienlbenzylamine. The background was determined by conducting the assay without any FMLP.

[3] = Hygroscopicity and stability in air of the hydrochloride salt; type: physicochemical
Experimental: D. Hydrochloride salt of 5-chloro-2[(2-dimethylaminomethylphenyl) hydroxymethyl]thiophene 1.0 g of the 5-chloro-2-[(2-dimethylaminomethylphenyl)hydroxymethyl]thiophene prepared in C was dissolved in ether. The etheral solution was cooled to -80° C. Upon addition of an ethereal HCl solution a white precipitate was obtained which was immediately filtered under N2 and dried in high vacuum without heating.

[4] = 2 h, 2 hours, read-out: % INHIBITION (of paw swelling) HOUR 2
[5] = 3 h, 3 hours, read-out: % INHIBITION (of paw swelling) HOUR 3
[6] = 4 h, 4 hours, read-out: % INHIBITION (of paw swelling) HOUR 4

hygroscopicity [3]	stability in air ([3]; in air)	SMILES	inhibition in vivo at 30 mg/kg [1, 4] [%]	inhibition in vivo at 30 mg/kg [1, 5] [%]	inhibition in vivo at 30 mg/kg [1, 6] [%]	inhibition at 1 µM [2] [%]	inhibition at 0.01 µM [2] [%]
		CN(C)Cc1ccccc1C(C)(O)c1ccc(Cl)s1 (stereo not drawn) [Compound 33, N,N-dimethyl-2-[1-(5-chlorothien-2-yl)-1-hydroxyethyl]benzylamine hydrochloride]	66	60	40	26	26
		CN(CCO)Cc1ccccc1C(O)c1ccc(Cl)s1 (stereo not drawn) [Compound 8]	26.9	18.2	2.8	42	35
		CN(C)Cc1ccccc1Cc1ccc(Cl)s1 [Compound 12, 5-chloro-2-(2-dimethylaminomethylphenylmethyl)thiophene]	65.8	51.1	25.5	52	54
		CCN(CC)Cc1ccccc1C(O)c1ccc(Cl)s1 (stereo not drawn) [Compound 6, 5-chloro-2-[(2-diethylaminomethylphenyl)hydroxymethyl]thiophene]	46	35.9	0	25	24
		COC(c1ccc(Cl)s1)c1ccccc1CN(CCO)CCO (stereo not drawn) [Compound 9, 5-chloro-2-[2-(N,N-diethanolaminomethyl-phenyl)methoxymethyl]thiophene]	20.8	3.6	0	49	23
		CN(C)Cc1ccccc1C(O)c1ccsc1Cl (stereo not drawn) [Compound 22, 2-chloro-3-[(2-N,N-dimethylaminomethylphenyl)hydroxymethyl]thiophene hydrochloride]	22	0	0	29	
		CN(C)Cc1ccccc1C(O)c1cccs1 (stereo not drawn) [Compound 3, 2-[(2-Dimethylaminomethylphenyl)hydroxymethyl]thiophene]	43.3	22.8	0	39	14
		CN(C)Cc1ccccc1C(O)c1ccsc1 (stereo not drawn) [Compound 21]	39	18	30	54	35
		CN(C)Cc1ccccc1C(O)c1csc(Br)c1 (stereo not drawn) [Compound 23, 5-bromo-3-[(2-N,N-dimethylaminomethylphenyl)hydroxymethyl] thiophene hydrochloride]	72	66	44	34	
		CN(C)Cc1ccccc1C(=O)c1ccc(Cl)s1 [Compound 11, 5-chloro-2-(2-dimethylaminomethylbenzoyl)thiophene]	40.5	18.8	1.5	33	37
		Cc1ccc(C(O)c2ccccc2CN(C)C)s1 (stereo not drawn) [Compound 4, 2-[(2-dimethylaminomethylphenyl)hydroxymethyl]-5-methyl-thiophene]	43.1	19.8	4.2	55	12
		CCOC(c1ccc(Cl)s1)c1ccccc1CN(C)C (stereo not drawn) [Compound 7, 5-chloro-2-[(2-dimethylaminomethylphenyl)ethoxymethyl]thiophene]	24.2	0	0	41	37
extremely hygroscopic	unstable in air	CN(C)Cc1ccccc1C(O)c1ccc(Cl)s1.Cl (stereo not drawn) [Compound 2, 5-chloro-2-[(2-dimethylaminomethylphenyl)hydroxymethyl]thiophene hydrochloride]				76	57
		CN(C)Cc1ccccc1C(O)c1csc(Cl)c1 (stereo not drawn) [Compound 24, 5-chloro-3-[(2-N,N-dimethylaminomethylphenyl)hydroxymethyl]thiophene hydrochloride]	51	54	53	19	
